Results on four molecules are retold here after US20110201648A1, “POLY-HETEROARYL DERIVATIVES FOR THE TREATMENT OF CANCER” (INSTITUT CURIE, priority 2008, published 2011).

Structures are written as SMILES.

For the molecule `c1ccc(-c2ncc(-c3cccc(-c4cnc(-c5ccccn5)o4)n3)o2)nc1` [compound 1, 2,6-Bis[2-(pyridin-2-yl)oxazol-5-yl]pyridine], the melting point fell in the range of 242 to 245 °C.

In the case of `c1cc(-c2cnc(-c3ccc(-c4cnco4)o3)o2)nc(-c2cnc(-c3ccc(-c4cnco4)o3)o2)c1` [compound 6, 2,6-Bis(2-(5-(oxazol-5-yl)furan-2-yl)oxazol-5-yl)pyridine], the melting point is > 250 °C.

Regarding `c1cc(-c2cnco2)cc(-c2ncc(-c3cccc(-c4cnc(-c5cccc(-c6cnco6)c5)o4)n3)o2)c1` [compound 5, 2,6-Bis(2-(3-(oxazol-5-yl)phenyl)oxazol-5-yl)pyridine], the melting point lay in the range of 254 to 256 °C.

As for `c1cc(-c2cnc(-c3cccc(-c4cnco4)n3)o2)cc(-c2cnc(-c3cccc(-c4cnco4)n3)o2)c1` [compound 4, 1,3-Bis(2-(6-(oxazol-5-yl)pyridin-2-yl)oxazol-5-yl)benzene], the melting point is > 250 °C.

What is called melting point is the temperature, or range, at which the solid turns liquid.
